Laboratory results: patent US4963570A, “1-(acetylaminophenyl)-2-aminopropanone derivatives and pharmaceutical compositions thereof” (Laboratoire L. Lafon, priority 1983, dated 1990)
Counter-ions that a name gives are not always drawn.

Experiments:
[1] = acute toxicity, intraperitoneal (lethal doses); format: in vivo, mouse; conditions: mouse, in vivo, ip; male mice
Method: (§1) By intraperitoneal administration to male mice, the LD-30 (lethal dose for 30% of the animals tested) is of the order of 128 mg/kg and the LD-50 is of the order of about 200 mg/kg.

male mice = experiment: acute toxicity, intraperitoneal (lethal doses); format: in vivo, mouse; conditions: i.p.
Method: as §1

dogs = experiment: cardiovascular action in anesthetized dogs; format: in vivo, dog
Method: Four dogs (average weight: 13.8 kg), anesthetized with nembutal, receive CRL 41 220 by intraduodenal administration at successive doses of 0.1 mg/kg, 0.5 mg/kg, 1 mg/kg, 2.5 mg/kg, 5 mg/kg and 10 mg/kg. The blood pressure, the heart beat, the flow rate through the femoral artery, the flow rate through the vertebral artery and the rectal and/or skin temperature are measured and the coloration of the skin and the bile (collected by catheterization of the bile duct after ligature of the cystic duct) is observed.

[2] = system: spleen cells expressing a direct IgM antibody response; experiment: test for cells forming lysis areas (PFC IgM, Cunningham); format: in vivo, mouse; conditions: dose not stated
Method: Immunological assays were carried out in order to point out the interest of CRL 41 240 as an immunomodulating agent. Specifically, the test used was the so-called test for cells forming lysis areas, described by A. J. […] et al. ("Further improvements in the plaque technique for detecting simple antibody forming cells"), Immunology 14, pages 599-601 (1968).
The test for cells forming lysis areas (or PFC IgM) explores the humoral immunity. Four days after immunization with a T-dependent antigen (in this case red blood corpuscles of sheep), the spleen cells expressing a direct IgM antibody response are counted. The mice used for this purpose are conventional female OF1 mice devoid of specific pathogenic organisms, weighing from 20 to 30 g and divided up into a control group of 14 animals and groups each containing 7 animals per dose and per product to be studied, administered orally on the same day as the antigen. An activity index I is calculated for each dose of product according to the following equation: [formula]
This test is performed at least twice for each dose of test product [C(control amimals), 0.01, 0.1, 10 and 100 mg/kg] and a statistical study is undertaken using the Student t test after variance analysis on the number of lyses per spleen.

[3] = system: delayed hypersensitivity to the red blood corpuscles of sheep; experiment: delayed hypersensitivity to the red blood corpuscles of sheep (Miller); format: in vivo; conditions: dose not stated
LEWIS' carcinoma = LEWIS' carcinoma in mice; format: in vivo, mouse
Method: a. animals: consanguineous female mice (C57 BL6), b. infecting cells: 10^5 cells injected subcutaneously into the back of the animals, c. monitoring of the tumor growth by measurement of the tumor twice a week, d. evaluation of the pulmonary metastases after fixation of the lungs of the dead animals in BOUIN's fixative.
Using the same procedures, the association of CRL 41 220 with 150 mg/kg of cyclophosphamide gives the results collated in Table II below.

man = experiment: clinical trials; format: in vivo, human; conditions: man, oral, 250 to 500 mg
CNS = experiment: overall neuropsychopharmacological (CNS) profile; format: in vivo, mouse; rat; conditions: i.p., mice and rats; dose not stated
Method: The neuropsychopharmacological study of CRL 41 219 was carried out as indicated above for CRL 41 224.
The neuropsychopharmacological study of CRL 41 220 was carried out in accordance with the procedures given above for CRL 41 224.

immunological properties = experiment: immunological properties, overall; format: in vivo; conditions: dose not stated
From the text: The present 1-(acetylaminophenyl)-2-aminopropanone derivatives are useful in therapy. They all act on the CNS, more precisely as antidepressants. They have a stimulant or excitant component in their neuropsychopharmacological profile.

[4] = dogs, after accumulated 19.1 mg/kg intraduodenal
[5] = dogs, after intraduodenal CRL 41 220
[6] = CRL 41 220 2 mg/kg + cyclophosphamide 150 mg/kg

**Q.** Which LD50 [1] does the source give for `CC(=O)Nc1c(Cl)cc(C(=O)C(C)NC(C)C)cc1Cl` (stereo not shown) [CRL 41 220, 1-(4-acetylamino-3,5-dichlorophenyl)-2-isopropylaminopropanone hydrochloride] here?
**A.** The LD50 was about 500 mg/kg.

**Q.** And the “LD-0 (maximum non-lethal dose)” value (male mice)?
**A.** The value was “greater than 128 mg/kg”.

**Q.** And the LD-30 (male mice)?
**A.** The LD-30 was “about 250 mg/kg”.

**Q.** And the respiratory stimulation (dogs; 4 dogs, intraduodenal)?
**A.** The respiratory stimulation was “induces respiratory stimulation in the 4 dogs”.

**Q.** What about the “diastolic blood pressure before isoprenaline” value (dogs; [4]) of the same compound?
**A.** Its value is 112 mm Hg.

**Q.** And the “diastolic blood pressure with 10 μg/kg of isoprenaline” value (dogs; [4])?
**A.** Its value is 47 mm Hg.

**Q.** And the “effect of isoprenaline on the diastolic blood pressure after CRL 41 220” value (dogs; [4])?
**A.** Its value is “very slightly modified as regards the diastolic blood pressure”.

**Q.** And the “effect of isoprenaline on the heart beat after CRL 41 220” value (dogs; [4])?
**A.** The value was “not modified as regards the heart beat”.

**Q.** What about the “heart beat before isoprenaline” value (dogs; [4]) of the same compound?
**A.** The value was 221 beats/minute.

**Q.** What about the “heart beat with 10 μg/kg of isoprenaline” value (dogs; [4]) of the same compound?
**A.** The value was 275 beats/minute.

**Q.** What about the “effect of 1 mg/kg of propanolol at the end of the test” value (dogs; [5]) of the same compound?
**A.** Its value is “suppresses all the effects of CRL 41 220”.

**Q.** What about the “systolic blood pressure before noradrenaline” value (dogs; [5]) of the same compound?
**A.** Its value is 202 mm Hg.

**Q.** What about the “systolic blood pressure with 2 μg/kg of noradrenaline” value (dogs; [5]) of the same compound?
**A.** The value was 272 mm Hg.

**Q.** And the “hypertension induced by noradrenaline” value (dogs; dogs, after intraduodenal CRL 41 220, noradrenaline 2 μg/kg)?
**A.** The value was “hypertension induced by noradrenaline is reduced”.

**Q.** What about the overall cardiovascular action (dogs; dogs, intraduodenal) of the same compound?
**A.** Its overall cardiovascular action is “acts as a hypotensive agent”.

**Q.** What about the “rectal and skin temperatures” value (dogs; dogs, intraduodenal) of the same compound?
**A.** Its value is “increases the rectal and skin temperatures”.

**Q.** What about the femoral flow rate (dogs; dogs, intraduodenal, 1 mg/kg) of the same compound?
**A.** Its femoral flow rate is “increases the vertebral flow rate as from a dose of 0.5 mg/kg, the femoral flow rate”.

**Q.** What about the heart beat (dogs; dogs, intraduodenal, 2.5 mg/kg) of the same compound?
**A.** The heart beat was “increases the vertebral flow rate as from a dose of 0.5 mg/kg, the femoral flow rate at a dose of 1 mg/kg and the heart beat”.

**Q.** And the hypotensive effect (dogs; dogs, intraduodenal, 10 mg/kg)?
**A.** Its hypotensive effect is “hypotensive effect”.

**Q.** What about the vertebral flow rate (dogs; dogs, intraduodenal, as from 0.5 mg/kg) of the same compound?
**A.** Its vertebral flow rate is “increases the vertebral flow rate”.

**Q.** And the “immunomodulating activity, test for cells forming lysis areas” value [2]?
**A.** Its value is “immunomodulating stimulant capacity”.

**Q.** What about the “immunomodulating activity, delayed hypersensitivity” value [3] of the same compound?
**A.** Its value is “immunomodulating stimulant capacity”.

**Q.** What about the “animals treated still being alive several weeks after the experiment” value (LEWIS' carcinoma; [6]) of the same compound?
**A.** Its value is “all”.

**Q.** What about the “protective action in respect of LEWIS' carcinoma” value (LEWIS' carcinoma; [6]) of the same compound?
**A.** Its value is “unquestionable protective”.

**Q.** And the “differences compared with cyclophosphamide used by itself” value (LEWIS' carcinoma; CRL 41 220 5 mg/kg + cyclophosphamide 150 mg/kg)?
**A.** The value was “substantially few”.

**Q.** And the “toxicity of the association compared with cyclophosphamide used by itself” value (LEWIS' carcinoma; CRL 41 220 100 mg/kg + cyclophosphamide 150 mg/kg)?
**A.** The value was “increase in the toxicity”.

**Q.** What about the “activity in LEWIS' carcinoma, used by itself” value (LEWIS' carcinoma; female C57 BL6 mice, alone) of the same compound?
**A.** The value was “inactive”.

**Q.** What about the “activity in the study of LEWIS' carcinoma, overall statement” value (LEWIS' carcinoma; mice) of the same compound?
**A.** The value was “active”.

**Q.** What about the “clinical result: circulatory disorders and insufficient immunoreaction (recurrent herpes, rheumatoid polyarthritis, severe measles)” value (man) of the same compound?
**A.** The value was “good results”.

**Q.** And the “overall action on the CNS” value (CNS)?
**A.** Its value is “antidepressant and stimulant effects”.

**Q.** And the “immunological properties, overall” value (immunological properties)?
**A.** Its value is “beneficial immunomodulating effects”.
